Data set [1] is described as follows: Acute toxicity (LD50) in mice. Type of data set: in vivo.
The test system of data set [2] is reverse transcriptase (authentic sample) derived from Avian Myeloblastosis Virus. The data set is described as follows: Inhibition of reverse transcriptase activity (AMV). Type of data set: biochemical. Particulars: AMV enzyme; 1, 0.1 and 0.01 μg/ml. The procedure:
Test substances were assayed for inhibition against the enzyme activity of reverse transcriptase (authentic sample) derived from Avian Myeloblastosis Virus (abbrev. AMV), a kind of retrovirus. Five microliters of […] (template RNA), 4 μl of (dT)12-18 (primer DNA), and 1 μl of water were mixed with 5 μl of 0.5M Tris-CHl (pH 8.4) including 0.1% triton X-100, 5 μl of […], 5 μl of 20 mM-DDT, 5 μl of water, and [^3 H]-TTP (tritium labeled thymidine triphosphate). To this mixture, test substances in solutions (final concentrations: 1, 0.1, and 0.01 μg/ml, 5 μl) or buffer solutions (control, 5 μl) at various doses were added. Then, 5 μl (one unit) of the authentic reverse transcriptase derived from AMV was added and the reaction mixture was incubated at 37° C. for 30 minutes. The reaction was stopped by addition of trichloroacetic acid, and after filtering the reaction mixture, the radioactivity of the polymerized (^3 H-T)n retained on the filter was measured using a liquid scintillation counter. As the test substances, sodium dextran sulfate (molecular weight: 5000), same (molecular weight: 8000), same (molecular weight: 500000), fucoidin, κ-carrageenan, λ-carrageenan, and .iota.-carrageenan were used.
The effects of the test substances on the reverse transcriptase activity of AMV were evaluated by the method described in Example 1.

Data set [3] deals with HTLV-III. The data set is described as follows: Anti-AIDS activity, infected cell rate of MT-4 cells infected with HTLV-III at 6th day. The class given is cell-based. Particulars: for anti-AIDS virus activity: MT-4 cells, HTLV-III. The procedure:
(§1) To MT-4 cells (30×10^4 /ml) cultured in RPMI-1640 medium containing 10% bovine serum, was inoculated HTLV-III, and the suspension was incubated at 37° C. for 1 hour to cause the adsorption of the virus. The cell:virus ratio was 500:1. The cells were then washed, and cultured with or without various doses of the test substances (same as those of Example 1) at 37° C. under 5% CO2 for 3 days, after which cell growth, viability, and percentage of infected cells were recorded. The infected cells were distinguished from the uninfected cells by indirect immuno-fluorescence method. Thus; the cultured cells were fixed with cold methanol on a slide glass, reacted with antibody to the HTLV-III-specific antigens, and further with the secondary antibody (having fluorescent label). The results are shown in FIGS. 9-29, wherein, , and show the controls without virus; , and show the infection experiments with HTLV-III. The cell growth is indicated in number of cells, the viability (%) in number of viable cells×100/number of total cells, and the infected cell rate (%) in number of fluorescent-positive cells×100/number of total cells.
In order to examine the correlation between the anti-AIDS virus activity and the molecular structure (especially, molecular weight and S-content or number of sulfate group in this case) of various test substances including those used in Examples 1-7, the anti-AIDS activities were evaluated for the various naturally occurring polysaccharides, polysaccharides having sulfate group, mucopolysaccharides, mucopolysaccharide sulfate, and mucopolysaccharide polysulfate. Further, similar experiments were carried out with various other sulfates which were synthetically obtained. The experimental procedures employed are identical to that in preceding experiments. The cultured MT-4 cells were infected with HTLV-III and the inhibitory effects of various test subsutances on the infected cell rate (number of fluorescent cell×100/ total cell, %) were determined at 6th day.

For data set [4], the system named is disrupted HTLV-III virions as a crude reverse transcriptase. Description: Inhibition of reverse transcriptase activity (disrupted HTLV-III virions). The note with it: crude enzyme from HTLV-III virions. The class given is biochemical.
The subject of data set [5] is HTLV-III. Description: Anti-AIDS virus activity, MT-4 cells infected with HTLV-III, 3 days. Type of data set: cell-based. Particulars: increasing dose. The procedure:
as §1
Test substances were assayed for the anti-AIDS virus activity in the same manner as in Example 3 using cell culture. The test substances are the same as those used in Example 5. […]
The anti-AIDS virus activity of heparin was evaluated in the same manner as in Example 3. […]

Data set [6] concerns reverse transciptase of simian sarcoma virus. The note with it: in vitro; Cancer Research, 38, 2401-2407; cited from earlier work.
The test system of data set [7] is DNA polymerase of phytohemagglutinin stimulated human lymphocytes. Particulars: in vitro; Cancer Research, 38, 2401-2407; cited from earlier work.
Setting [8] is: 10 μg/ml, 6th day, control 100%.
Where [9] appears, read: 100 μg/ml, 6th day, control 100%.

Data on five substances can be found in patent publication US4840941A, “Method for inhibiting infection of human T-cells” (Kabushiki Kaisha Ueno Seiyaku Oyo Kenkyujo, priority 1986, dated 1989).

In the case of sodium chondroitin sulfate, the “acute toxicity (LD50)” value in data set [1] (intraperitoneally) is ≥ 4,000 mg/kg; in data set [1] (orally), ≥ 7,500 mg/kg.
For the substance Chondroitin polysulfate, the “reverse transcriptase inhibition activity” value in data set [2] is reported as “stronger activity than the natural substances”. Moreover, the “Infected cell (%)” value with HTLV-III [3] (setting [8]) is given as 3%; in the data set with HTLV-III [3] (setting [9]), 1%. Also, in the data set with HTLV-III [3] (6th day), the anti-AIDS virus activity result is “particularly strong anti-AIDS virus activities”.
Consider keratan polysulfate, for which the “reverse transcriptase inhibition activity” value in data set [2] is recorded as “stronger activity than the natural substances”.
Turning to “Sodium dextran sulfate [Sodium dextran sulfate (molecular weight: 7000-8000, S-conte]”, the “reverse transcriptase inhibitory effect” value in data set [4] was “has an inhibitory effect”. Besides, the “Infected cell (%)” value with HTLV-III [3] (10 μg/ml, 6th day; control 100%; S-content 17-20), 8640 min) is 1%; in the data set with HTLV-III [3] (setting [9]) it was 0%. Moreover, the “acute toxicity (LD50)” value in data set [1] (intravenously) is 4,500 mg/kg; in data set [1] (orally), 21,000 mg/kg.
For the substance Heparin, the “cell growth and viability of MT-4 cells infected with HTLV-III” value in the data set on HTLV-III [5] was “the number of cells and viability were maintained to that of control”. For the same substance, the infected cell rate entry in the data set on HTLV-III [5] (indirect immunofluorescence) is given as “less susceptible to the viral infection”. For the same substance, the “Infected cell (%)” value in the data set with HTLV-III [3] (setting [8]) amounted to 41%; with HTLV-III [3] (setting [9]) it was 1%. The anti-AIDS virus activity entry in the data set with HTLV-III [3] (6th day) was “particularly strong anti-AIDS virus activities”. Besides, the “acute toxicity (LD50)” value in data set [1] (intravenously) is listed as 1,500-2,000 mg/kg. Further, in data set [6], the “inhibition of reverse transcriptase of simian sarcoma virus” value was “inhibit”. Moreover, the “inhibition of DNA polymerase of phytohemagglutinin stimulated human lymphocytes” value in data set [7] is recorded as “inhibit”.
